# Data as given in patent publication EP0645399A2, “Ribosome inactivating proteins (RIB), their method of production and medical preparation containing RIP” (priority 1993, dated 1995).
# Target: T1, HIV-1 Reverse Transkriptase (Human immunodeficiency virus type 1 group M subtype B, UniProt P03366)
# T1 construct: Rekombinante HIV-1 Reverse Transkriptase (66 kDa); made in house; host or cells: Escherichia coli
# Assay: HIV-1 RT test (3H-TTP incorporation, recombinant enzyme)
# Assay type: biochemical
# Conditions: positive control; read-out: IC₅₀ (HIV-1 RT)
# Source text: Zur Untersuchung der biologischen Aktivität wird das aufgereinigte Protein (P 1) in einem Ribosomen-Hemmtest und einem HIV-1 RT Test eingesetzt. Im Ribosomen-Hemmtest wird die Inaktivierung von Ribosomen in einem Retikulozyten-Lysat durch das erfindungsgemäße Protein gemessen (vgl. Krawetz et al., 1983). Im HIV-1 RT Test wird die Hemmung der HIV-1 Reverse Transkriptase (HIV-1 RT) durch das erfindungsgemäße Protein P 1 bestimmt (vgl. Tan et al., 1991).
# Enzym: Rekombinante HIV-1 Reverse Transkriptase (66 kDa), exprimiert in Escherichia coli (vgl. Tan et al., 1991 und darin zitierte Literatur). Die Aktivität des Enzyms in RT-Testsystemen ist von viralem Enzym nicht zu unterscheiden. Protein-Konzentration: 0,11 mg/ml; Aktivität: Einbau von 238 nM TTP/mg Protein in 10 min bei 37°C. Testansatz: 50 mM Tris-HCl, pH 8,0, 150 mM KCl, 5 mM MgCl₂, 0,5 mM EGTA, 5 mM Dithiothreitol, 0,3 mM Glutathion, 2,5 µg/ml BSA, 41 µM poly(A) (Σ₂₆₀(mM) = 7,8), 9,5 µM oligo(dT)₁₂₋₁₈ (Σ₂₆₅(mM) = 5,6), 0,05% Triton X-100, 20 µm TTP und 0,5 µCi (³H)-TTP (Endvolumen 100 µl). Probenlösung: 10 µl, in H₂O oder 25 mM Tris-HCl, pH 8,4. HIV-1 RT: 10 µl (0,11 µg in Testpuffer)
# Die Polymerisationsreaktion wird durch den Zusatz der HIV-1 RT-Lösung zum Testansatz gestartet. Nach einer Inkubationszeit von 1 Stunde (37°C) wird die Reaktion durch Zugabe von 25 µl einer 0,1 M EGTA-Lösung gestoppt und die Ansätze auf Eis gekühlt. […]
structure (smiles),measurement,value
COc1cc2c(ccc3c4cc(OC)c(OC)cc4c[n+](C)c23)cc1O [Fagaronin-Chlorid],IC50,13 µM
